Series [1] has as its system SLC7A11 mRNA expression in MOLM13-EV and MOLM13-SPINK2 cells. Put plainly: qPCR of SLC7A11 after Nutlin-3a in MOLM13-EV and MOLM13-SPINK2 cells. To be noted: Nutlin-3a 1 μM, 48 hours and 72 hours. Format: cell-based. The procedure:
Previously, p53 transcriptionally represses SLC7A11 expression, thereby playing an important pro-ferroptotic role. The data has shown that p53 pathway genes are inversely affected upon SPINK2 modulation (Tables S11 & S12). Based on the hypothesis that SPINK2 overexpression in MOLM13 cells might counteract the p53-mediated repression of SLC7A11, MOLM13-EV and MOLM13-SPINK2 cells are treated with the p53 activator, Nutlin-3a (1 μM), for 48 hours and 72 hours. […] Of note, the effects of Nutlin-3a could not be tested in KG1a cells, since they have a TP53 mutation which renders them insensitive to Nutlin-3a activity.
GFP-labelled lentiviruses are used for assessing the biological significance of SPINK2 in AML by overexpressing SPINK2 in OCIAML3 and MOLM13 cells (pRSC—SFFV-SPINK2-E2A-Puro-E2A-GFP-Wpre) and empty vector, EV (pRSC—SFFV-Puro-E2A-GFP-wpre) are provided. Transduction is performed in approximately 2×10^5 cells/ml at a multiplicity of infection (MOI) of 20 using Retronectin®-coated 6-well plates according to the manufacturer's instructions (Takara Bio Inc.) This is followed by puromycin selection (1 μg/ml) for at least seven days. Functional studies are then performed on cells as described and extra cells are cryopreserved.

Series [2] concerns SPINK2^high cells (KG1a and GDM1) vs. SPINK2^low cells (OCIAML3 and MOLM13). The experiment in a line: Cytotoxicity compared between SPINK2high and SPINK2low cell lines (Cell Titer Glo). Format: cell-based. To be noted: 72 h treatment, compared with SMI-2. The procedure: (§1) Cells are treated with the SMIs and control (DMSO) for 72 hours and their viability is detected using the Cell Titer Glo® assay according to the manufacturer's instructions. Statistical analysis is performed using one-way ANOVA with Tukey's multiple comparisons test with Mean+SD of at least 2 independent experiments.
(§2) Cells are seeded into 96-well plates at a density of approximately 2×10^5 cells/ml and drugs are added at indicated concentrations. Cell viability is measured at indicated time points using Cell Titer-GLO® Luminescent Cell Viability Assay. For assessment of gene expression after drug treatment, cells are seeded in 6-well plates at approximately 4×10^5 cells/ml and drugs are added at indicated doses. RNA and/or protein is extracted 72 hours later. qPCR and Western Blot are then performed according to standard procedures to detect target gene and protein expression.
For orientation: Cellular ATP, detected with luciferase, serves as a proxy for viable cell number.

The test system of series [3] is GDM1 cells. Put plainly: Cell Titer-GLO cell viability assay, GDM1. Format: cell-based. Conditions: GDM1 (SPINK2high), 150 μM for 72 hours. The procedure: (§3) The SMI is initially tested with increasing doses for its effect upon cell viability in KG1a cells. […] This dose is then tested on GDM1, MOLM13 and OCIAML3 cells.
as §1, §2

For series [4], the system named is KG1a cells. Put plainly: Cell Titer-GLO cell viability assay, KG1a. Format: cell-based. The procedure:
as §3, §1, §2

In series [5] the test system is SPINK2 protein expression in GDM1 cells. The experiment in a line: Western blot of SPINK2 protein after SMI treatment, GDM1. Format: cell-based. The procedure:
as §3
(§4) Cells are harvested, washed in Phosphate-buffered saline (PBS) and lysed using Pierce™ IP Lysis Buffer. Protein concentration is measured using Pierce™ BCA Protein Assay Kit. Approximately 30 μg of whole cell lysates are mixed with 4× Laemmli Buffer and β-mercaptoethanol and denatured for 5 minutes at 95° C. Lysates are equally loaded onto and separated using freshly prepared polyacrylamide gels. Proteins are transferred onto 0.2 μm Immun-Blot® PVDF membranes using FLASHBlot transfer buffer. The membranes are then blocked for one hour at room temperature with 5% non-fat dry milk in TBS Tween™ 20 Buffer. This is followed by incubation with primary antibodies diluted in 5% bovine serum albumin (BSA) at 4° C. overnight. Primary antibody dilutions are as follows: SPINK2 (1:1000), ALCAM (1:10000), β-ACTIN (1:10000), GAPDH (1:2500). […]
(§5) Cells are seeded into 96-well plates at a density of approximately 2×10^5 cells/ml and drugs are added at indicated concentrations. Cell viability is measured at indicated time points using Cell Titer-GLO® Luminescent Cell Viability Assay. […]

Series [6] deals with SPINK2 protein expression in KG1a cells. Put plainly: Western blot of SPINK2 protein after SMI treatment, KG1a. Format: cell-based. The procedure: as §3, §4, §5
(In general: Immunoblotting shows a protein as a band on a membrane.)

Series [7] has as its system STEAP3 mRNA expression in KG1a cells. Put plainly: qPCR of SPINK2 target gene STEAP3 after SMI treatment, KG1a. The format is cell-based. The procedure: as §3, §2
Series [8] can be described thus: Solubility in DMSO and other solvents. Format: physicochemical. The source says:
In another embodiment, the SMI is screened via a structure-based virtual screening (SBVS) and selected from a group of bioactive molecules due to its efficient binding affinity based on its idock scores and its capacity to dissolve in at least one solvent selected from a group comprising of dimethyl sulfoxide (DMSO), water, ethanol or dimethylformamide (DMF).
To identify potential SPINK2-SMIs, Structure-based Virtual Screening (SBVS) is initially employed for in silico screening of a small-molecule library comprising 1.5 million compounds to identify bioactive molecules that bind to the targeting domain of SPINK2 (FIG. 16A).

Series [9] concerns SLC7A11 mRNA expression in KG1a cells. Put plainly: qPCR of SPINK2 target gene SLC7A11 after SMI treatment, KG1a. Format: cell-based. The procedure:
as §3, §2

The values below come from patent publication US20250138013A1, “SMALL MOLECULE INHIBITOR TARGETING A LEUKEMIC STEM CELL ASSOCIATED GENE FOR HIGH-RISK AML PATIENTS” (The Chinese University of Hong Kong, priority 2023, published 2025).

Entries after “also recorded” stand apart in the source; their conditions may differ.

For `COc1ccc(C2=N[C@@H](c3ccc(Cl)cc3)[C@@H](c3ccc(Cl)cc3)N2C(=O)N2CCNC(=O)C2)c(OC(C)C)c1` [Nutlin-3a], the “SLC7A11 mRNA expression” value in [1] was “reduced in MOLM13-EV cells to a significantly greater extent than in MOLM13-SPINK2 cells”.

As to `C[C@]12C(=O)N(c3cccc(C(=O)O)c3)C(=O)[C@H]1C1c3ccccc3C2c2ccccc21` [SMI, 3-[(15R,19S)-15-methyl-16,18-dioxo-17-azapentacyclo [6.6.5.02,7.09, 14.015,19]nonadeca-2,4,6,9,11,13-hexaen-17-yl]benzoic acid], the “toxicity/specificity against SPINK2high vs SPINK2low cells” value in series [2] was “selectively decreased viability”; in series [2] (listed as SMI-5), “greater toxicity; also recorded: greater specificity”. In addition, the “effect on cell viability” value is recorded as “significantly decreased cell viability” in series [3] and “significantly decreased cell viability” in [4] (KG1a (SPINK2high), 150 μM for 72 hours). The cytotoxicity at 150 µM in [4] (Homo sapiens, KG-1a, KG1a cells, 150 μM, 72nd hour, read-out: reduction of cell viability) is about 50%. Also, the SPINK2 protein expression entry in series [5] and in [6] was “decreased” in each case. For the same molecule, the “STEAP3 mRNA expression” value in [7] was “upregulation”. Besides, the “solubility in DMSO” value in series [8] is given as “soluble in DMSO”. The “SLC7A11 mRNA expression” value in [9] is reported as “downregulation”.
